According to the OligoGym collection:
HELM strings list units from the 5' end as sugar, base in round brackets, then linkage (d deoxyribose, r ribose, m 2'-O-methyl, p phosphodiester). Strings are as the collection lists them; they lack the last nucleoside at the 3' end of the tested compound. [moe] = 2'-O-(2-methoxyethyl) (MOE); [sp] = phosphorothioate linkage; [m5C] = 5-methylcytosine

The substances below were run against PRNP (assay: mouse, dose not given). Conditions: ASO.
With “RNA1{[moe](G)[sp].[moe]([m5C])p.[moe](A)p.[moe](A)p.[moe]([m5C])[sp].d(G)[sp].d(G)[sp].d([m5C])[sp].d(T)[sp].d([m5C])[sp].d(A)[sp].d(T)[sp].d(G)[sp].d(A)[sp].d(T)[sp].[moe](G)p.[moe](A)p.[moe](A)[sp].[moe]([m5C])}$$$$ (last 3' nucleoside missing)” the 3 h FOB score was 3.5 score 0-7.
“RNA1{[moe](G)[sp].[moe](G)p.[moe](T)p.[moe](T)p.[moe](A)[sp].d(G)[sp].d([m5C])[sp].d(T)[sp].d(T)[sp].d(T)[sp].d(T)[sp].d(T)[sp].d(T)[sp].d(T)[sp].d([m5C])[sp].[moe](A)p.[moe]([m5C])p.[moe](T)[sp].[moe](G)}$$$$ (last 3' nucleoside missing)” gave a 3 h FOB score of 4.75 score 0-7.
In the case of “RNA1{[moe](G)[sp].[moe](T)p.[moe]([m5C])p.[moe](A)p.[moe](G)[sp].d(T)[sp].d(T)[sp].d(T)[sp].d(T)[sp].d(T)[sp].d([m5C])[sp].d([m5C])[sp].d([m5C])[sp].d([m5C])[sp].d(A)[sp].[moe]([m5C])p.[moe](A)p.[moe](T)[sp].[moe](A)}$$$$ (last 3' nucleoside missing)”, the 3 h FOB score is reported as 1 score 0-7.
“RNA1{[moe](G)[sp].[moe]([m5C])p.[moe](A)p.[moe](G)p.[moe](A)[sp].d(A)[sp].d(A)[sp].d(G)[sp].d(T)[sp].d(A)[sp].d(G)[sp].d([m5C])[sp].d(T)[sp].d(A)[sp].d(T)[sp].[moe]([m5C])p.[moe](A)p.[moe](T)[sp].[moe](T)}$$$$ (last 3' nucleoside missing)” was tested, and the 3 h FOB score was 4.25 score 0-7.
“RNA1{[moe](A)[sp].[moe](A)p.[moe]([m5C])p.[moe](G)p.[moe](T)[sp].d([m5C])[sp].d([m5C])[sp].d(A)[sp].d(T)[sp].d(T)[sp].d(T)[sp].d(T)[sp].d([m5C])[sp].d(T)[sp].d(G)[sp].[moe](T)p.[moe](G)p.[moe]([m5C])[sp].[moe](T)}$$$$ (last 3' nucleoside missing)” showed a 3 h FOB score of 0 score 0-7.
Work on “RNA1{[moe](T)[sp].[moe](G)p.[moe](T)p.[moe](G)p.[moe](T)[sp].d([m5C])[sp].d(A)[sp].d(T)[sp].d(A)[sp].d(A)[sp].d(T)[sp].d(T)[sp].d(T)[sp].d(T)[sp].d([m5C])[sp].[moe](T)p.[moe](T)p.[moe](A)[sp].[moe](G)}$$$$ (last 3' nucleoside missing)” yielded a 3 h FOB score of 1 score 0-7.
For “RNA1{[moe]([m5C])[sp].[moe]([m5C])p.[moe]([m5C])p.[moe]([m5C])p.[moe](A)[sp].d(G)[sp].d(T)[sp].d(G)[sp].d(T)[sp].d(T)[sp].d([m5C])[sp].d([m5C])[sp].d(A)[sp].d(T)[sp].d([m5C])[sp].[moe]([m5C])p.[moe](T)p.[moe]([m5C])[sp].[moe]([m5C])}$$$$ (last 3' nucleoside missing)”, the 3 h FOB score was 0 score 0-7.
Substance “RNA1{[moe](G)[sp].[moe](T)p.[moe](G)p.[moe](T)p.[moe](T)[sp].d(G)[sp].d(T)[sp].d(G)[sp].d(A)[sp].d([m5C])[sp].d(A)[sp].d(A)[sp].d(T)[sp].d(A)[sp].d(T)[sp].[moe](T)p.[moe](T)p.[moe](A)[sp].[moe]([m5C])}$$$$ (last 3' nucleoside missing)” has a 3 h FOB score of 1 score 0-7.
“RNA1{[moe]([m5C])[sp].[moe](G)p.[moe](T)p.[moe]([m5C])p.[moe]([m5C])p.[moe](A)p.d(T)[sp].d(T)[sp].d(T)[sp].d(T)[sp].d([m5C])[sp].d(T)[sp].d(G)[sp].d(T)[sp].d(G)[sp].d([m5C])[sp].[moe](T)p.[moe](T)[sp].[moe](T)}$$$$ (last 3' nucleoside missing)” gave a 3 h FOB score of 6.25 score 0-7.
Work on “RNA1{[moe](G)[sp].[moe](G)p.[moe](G)p.[moe](A)p.[moe](T)[sp].d(G)[sp].d(A)[sp].d(T)[sp].d([m5C])[sp].d(T)[sp].d(G)[sp].d([m5C])[sp].d(A)[sp].d(A)[sp].d(T)[sp].[moe](T)p.[moe](G)p.[moe](T)[sp].[moe](T)}$$$$ (last 3' nucleoside missing)” yielded a 3 h FOB score of 4 score 0-7.
